Reference: US20200077656A1, “Use of an Acyclic Picolinamide Compound as a Fungicide for Control of Phytopathogenic Fungi in Row Crops” (priority 2017, published 2020)

Legend:
Assay type in all cases: in vivo
Ramularia collo-cygni = test: Field assessment of Ramularia collo-cygni (RAMUCC) on barley; settings: 5% EC + Trycol adjuvant, winter barley
Protocol: Field Assessment of Ramularia […]) on Barley: A fungicidal treatment containing a 5% EC formulation of compound I, tanked mixed with an adjuvant (Trycol, 50% w/w at 0.1% v/v), was sprayed on barley plants (winter barley; Cassia variety) at BBCH 33 growth stage of winter barley (5% infection on L5 at application), under natural infection of Ramularia leaf spot of barley. […] Disease severity was recorded as a percentage of visual diseased foliage on whole plot. Ramularia leaf spot of barley infection was assessed three times at 7, 14 and 21 days after the last application. The disease infection was recorded following EPPO PP1/26 guideline prescriptions. Area under the disease progress curve (AUDPC) was calculated for each plot using the sets of recorded severity data. Relative AUDPC (% control based on AUDPC) was calculated as percent of the nontreated control.

Cercospora beticola = test: Field assessment of Cercospora beticola (CERCBE) on sugar beet, two trials averaged
Protocol: Field Assessment of Cercospora beticola (CERCBE) on Sugar Beet: Assessment of compound I of CERCBE on sugar beet was performed in two separate field trials. In the first trial, a fungicidal treatment containing an EC and SC formulations of compound I by itself and in combination with an adjuvant (Phase II, 50% w/w at 0.5% v/v) was sprayed on sugar beet plants ([…] variety) six times during the course of 7 weeks at the 18-39 growth stages of sugar beet. […] In the second trial, a fungicidal treatment containing an EC and SC formulations of compound I by itself and in combination with an adjuvant (Phase II, 50% w/w at 0.5% v/v) was sprayed on sugar beet plants (BEAVA) five times during the course of 4 weeks at the 36-49 growth stages of sugar beet. […] Disease severity was recorded as a percentage of visual diseased foliage on whole plot. Cercospora leaf spot infection was assessed three times at 7, 14 and 21 days after the last application. The disease infection was recorded following EPPO PP 1/1 (4) guideline prescriptions. Area under the disease progress curve (AUDPC) was calculated for each plot using the sets of recorded severity data. Relative AUDPC (% control based on AUDPC) was calculated as percent of the nontreated control and averaged over both field trials.

[1] = system: Blumeria graminis f. sp. hordei; test: Greenhouse assessment of Blumeria graminis f. sp. hordei (ERYSGH) on barley; settings: inoculated 1 day post application, barley seedlings
Protocol: Greenhouse Assessment of Blumeria graminis f sp. hordei ([…]) on Barley: In greenhouse studies, technical grades of material were dissolved in acetone, which were then mixed with nine volumes of water containing 100 ppm of Triton X-100. The fungicide formulations were applied onto seedling plants using an automated booth sprayer to run off. All sprayed plants were allowed to dry prior to further handling. Test plants were inoculated with powdery mildew of barley 1-day post application. When disease symptoms were fully expressed on the untreated plants, infection levels were assessed on a scale of 0 to 100 percent disease severity. Percent disease control was calculated using the ratio of disease severity on treated plants relative to untreated plants.

[2] = system: Cercosporidium personatum; test: Field assessment of Cercosporidium personatum (MYCOBE) in peanut; settings: Table 9, late leaf spot of peanut, AUDPC based
Cercospora sojina = test: Field assessment of Cercospora sojina (CERSO) in soybean; settings: for Percent Visual Severity of CERCSO: soybean upper canopy, untreated 8.6; for CERCSO Percent of Untreated (AUDPC): leaftop severity
[3] = 50 g/ha, Agnique BP420 200 mL/ha
[4] = 75 g/ha, Agnique BP420 300 mL/ha
[5] = 100 g/ha, Adsee C80W 80% 250 g/ha
[6] = 100 g/ha, Agnique BP420 400 mL/ha
[7] = 150 g/ha, Agnique BP420 600 mL/ha

SMILES: COc1ccnc(C(=O)N[C@@H](C)C(=O)O[C@@H](C)C(c2ccc(F)cc2)c2ccc(F)cc2)c1OC(C)=O [Compound I, (S)-1,1-bis(4-fluorophenyl)propan-2-yl (3-acetoxy-4-methoxypicolinoyl)-L-alaninate]
- Disease control of RAMUCC, percent control based on AUDPC (Ramularia collo-cygni; 75 g ai/ha): C (26-50)
- Disease control of RAMUCC, percent control based on AUDPC (Ramularia collo-cygni; 100 g ai/ha): C (26-50)
- Disease control of RAMUCC, percent control based on AUDPC (Ramularia collo-cygni; 150 g ai/ha): B (51-75)
- % Control (AUDPC) of CERCBE (Cercospora beticola; EC, 75 g ai/ha, no adjuvant): B (51-75)
- % Control (AUDPC) of CERCBE (Cercospora beticola; EC, 75 g ai/ha, with Phase II adjuvant): B (51-75)
- % Control (AUDPC) of CERCBE (Cercospora beticola; EC, 150 g ai/ha, no adjuvant): A (76-100)
- % Control (AUDPC) of CERCBE (Cercospora beticola; SC, 75 g ai/ha, no adjuvant): B (51-75)
- % Control (AUDPC) of CERCBE (Cercospora beticola; SC, 75 g ai/ha, with Phase II adjuvant): B (51-75)
- % Control (AUDPC) of CERCBE (Cercospora beticola; SC, 150 g ai/ha, no adjuvant): A (76-100)
- % Control of ERYSGH (disease severity treated relative to untreated) ([1]; 0.39 ppm): B (51-75)
- % Control of ERYSGH (disease severity treated relative to untreated) ([1]; 1.56 ppm): A (76-100)
- % Control of ERYSGH (disease severity treated relative to untreated) ([1]; 6.25 ppm): A (76-100)
- % Control of ERYSGH (disease severity treated relative to untreated) ([1]; 25 ppm): A (76-100)
- % Control of ERYSGH (disease severity treated relative to untreated) ([1]; 100 ppm): A (76-100)
- Calc Percent Control of MYCOBE [2, 3]: 28.5%
- Calc Percent Control of MYCOBE ([2]; 50 g/ha, MSO 100 g/ha): 24.0%
- Calc Percent Control of MYCOBE [2, 4]: 30.0%
- Calc Percent Control of MYCOBE ([2]; 75 g/ha, MSO 150 g/ha): 26.8%
- Calc Percent Control of MYCOBE [2, 5]: 26.9%
- Calc Percent Control of MYCOBE [2, 6]: 36.0%
- Calc Percent Control of MYCOBE ([2]; 100 g/ha, MSO 200 g/ha): 29.0%
- Calc Percent Control of MYCOBE [2, 7]: 44.7%
- Calc Percent Control of MYCOBE ([2]; 150 g/ha, MSO 300 g/ha): 38.5%
- Percent Visual Severity of CERCSO (Cercospora sojina; [3]): 5.6%
- Percent Visual Severity of CERCSO (Cercospora sojina; 50 g/ha, MSO 100 g/ha): 6.5%
- Percent Visual Severity of CERCSO (Cercospora sojina; [4]): 4.2%
- Percent Visual Severity of CERCSO (Cercospora sojina; 75 g/ha, MSO 150 g/ha): 3.6%
- Percent Visual Severity of CERCSO (Cercospora sojina; [5]): 4.5%
- Percent Visual Severity of CERCSO (Cercospora sojina; [6]): 4.5%
- Percent Visual Severity of CERCSO (Cercospora sojina; 100 g/ha, MSO 200 g/ha): 4.3%
- Percent Visual Severity of CERCSO (Cercospora sojina; [7]): 3.3%
- Percent Visual Severity of CERCSO (Cercospora sojina; 150 g/ha, MSO 300 g/ha): 3.3%
- CERCSO Percent of Untreated (AUDPC) (Cercospora sojina; [3]): 62.0%
- CERCSO Percent of Untreated (AUDPC) (Cercospora sojina; 50 g/ha, MSO 100 g/ha): 73.8%
- CERCSO Percent of Untreated (AUDPC) (Cercospora sojina; [4]): 63.1%
- CERCSO Percent of Untreated (AUDPC) (Cercospora sojina; 75 g/ha, MSO 150 g/ha): 62.9%
- CERCSO Percent of Untreated (AUDPC) (Cercospora sojina; [5]): 58.3%
- CERCSO Percent of Untreated (AUDPC) (Cercospora sojina; [6]): 61.6%
- CERCSO Percent of Untreated (AUDPC) (Cercospora sojina; 100 g/ha, MSO 200 g/ha): 52.4%
- CERCSO Percent of Untreated (AUDPC) (Cercospora sojina; [7]): 48.4%
- CERCSO Percent of Untreated (AUDPC) (Cercospora sojina; 150 g/ha, MSO 300 g/ha): 53.5%
